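Five concentrations, 48 hours, 96-well plates. Abbreviation: GI50, concentration required for 50% inhibition of growth. Definition used: TGI = concentration required for complete inhibition of growth.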
Columns and labels:
Experiment in all cases: growth of human tumour cells (NCI), 48 h
[1] = test system: NCI-H226 lung
[2] = test system: SW-620 colon
[3] = test system: SK-MEL-2 melanoma
[4] = test system: PC-3 prostate
[5] = test system: SF-295 CNS
[6] = test system: HL-60(TB) leukemia
[7] = test system: OVCAR-8 ovarian
[8] = test system: MCF7 breast
[9] = test system: T-47D breast
[10] = test system: DU-145 prostate

| Structure (SMILES) | GI50 [1] [µM] | TGI [1] [µM] | GI50 [2] [µM] | TGI [2] [µM] | GI50 [3] [µM] | TGI [3] [µM] | GI50 [4] [µM] | TGI [4] [µM] | GI50 [5] [µM] | TGI [5] [µM] | GI50 [6] [µM] | TGI [6] [µM] | GI50 [7] [µM] | TGI [7] [µM] | GI50 [8] [µM] | TGI [8] [µM] | GI50 [9] [µM] | TGI [9] [µM] | GI50 [10] [µM] | TGI [10] [µM] |
| --- | --- | --- | --- | --- | --- | --- | --- | --- | --- | --- | --- | --- | --- | --- | --- | --- | --- | --- | --- | --- |
| C[C@]12CC[C@H](O)CC1=CC[C@@H]1[C@@H]2CC[C@]2(C)C(=O)/C(=C/c3cccc(OCCCn4ccnc4)c3)C[C@@H]12 | 21.4 | 50.2 | 19.7 | 40.9 | 19.9 | 51 | 15.6 | 39.8 | 31.7 | > 100 | 13.8 | 44.7 | 17.7 | 32.8 | 23.1 | 54.1 | 12.4 | 31.3 | 19.9 | 38.7 |
| COc1cc(OC)c(-c2cc(=O)c3c(OC)c(OC)c(OC)c(OC)c3o2)cc1OC |  | > 100 |  | > 100 |  | > 100 |  | > 100 |  | > 100 |  | > 64.6 |  | > 100 |  | > 100 |  | > 100 |  | > 100 |
| C[C@@H]1O[C@@H](O[C@H]2C[C@@H](O)[C@]3(CO)C4C(CC[C@]3(O)C2)[C@@]2(O)CC[C@H](C3=CC(=O)OC3)[C@@]2(C)C[C@H]4O)[C@H](O)[C@H](O)[C@H]1O (stereo not given in full) | 0.0741 | 0.154 | 0.022 | 0.0869 | 0.0655 | 0.17 | 0.0214 | 0.113 | 0.0196 | 0.098 | 0.013 | 0.0318 | 0.0189 | 0.0691 | 0.0244 | 0.121 | 0.0215 | 0.0847 | 0.0104 | 0.02 |
| OCC1SC(n2cnc3cncnc32)C(O)C1O (stereo not given) | > 100 | > 100 | > 100 | > 100 | > 100 | > 100 | > 100 | > 100 | > 100 | > 100 | > 100 | > 100 | 85.2 | > 100 | > 100 | > 100 | > 100 | > 100 | > 100 | > 100 |
| CC1=CC[C@@H]2[C@@H](CC[C@@]2(C)O)C(C)(C)[C@H]1CC[C@@H]1[C@@]2(C)CCC(=O)C(C)(C)O[C@@H]2CC[C@]1(C)O |  | 63.5 |  | > 100 |  | > 100 |  | > 100 |  | 48.9 |  | 35 |  | 62.1 |  | > 100 |  | > 100 |  | > 100 |
| COC1=CC(c2ccc[nH]2)=N/C1=C\c1[nH]c(C)c(C(=O)CCC(=O)Oc2ccc3c(c2)CCC2C3CC[C@]3(C)C(=O)CC[C@@H]23)c1C (stereo not given in full) | 10.9 | > 58.6 | 0.773 | > 37.9 | 15.6 | 58.7 | 6.52 | > 100 | 21.4 | 85.3 | 50.2 | > 100 | 8.37 | > 100 | 1.91 | > 49.3 | 13.9 | > 100 | 1.58 | > 100 |
| COc1ccc2c(c1)O/C(=C\c1cccc(OCC(=O)Nc3nc4ccccc4s3)c1)C2=O | 42 | > 100 | 38.4 | > 100 | 11.5 | 33.3 | 8.46 | > 100 | 11.4 | > 71.7 | 4.68 | > 63 | 12.6 | > 100 | 14.2 | > 100 | 9.66 | > 100 | 3.57 | 21.9 |
| CO/N=C(\c1ccccc1)c1cnn(-c2ccccc2)c1N | > 25 | > 25 | > 25 | > 25 | > 25 | > 25 | > 25 | > 25 | > 25 | > 25 | > 25 | > 25 | > 25 | > 25 | > 25 | > 25 | > 25 | > 25 | > 25 | > 25 |
| O=C(c1ccccc1)c1ccc(-c2ccc(O)cc2)cc1 | 16.8 | > 73.7 | 5.23 | > 100 | 6.95 | 61 | 9.19 | 58 | 2.43 | 10.5 | 1.89 | 11.1 | 12.4 | 68.9 | 0.34 | 25.2 | 3.75 | 35.6 | 5.62 | 29.4 |
| CN(C(=O)c1ccc(F)cc1C(F)(F)F)C1CCN(c2nnc(-c3ccnn3C)c3ccccc23)CC1 | 28.2 | > 100 | > 100 | > 100 | 29.9 | > 100 | 33.3 | > 100 | 31.5 | > 100 | 27.3 | > 84.1 | 30.5 | > 100 | 24.2 | > 100 | 10.6 | 99.4 | 75.4 | > 100 |
| O=C(CC12CC3CC(CC(C3)C1)C2)NCCOCCOCCNC(=O)c1cc2c(o1)C(=O)c1ccccc1C2=O | 1.65 | 3.94 | 1.21 | 2.87 | 1.6 | 3.86 | 1.38 | 9.21 | 0.663 | 1.94 | 1.22 | 4.61 | 0.813 | 11.6 | 0.54 | 2.38 | 1.8 | 5.06 | 0.225 | 0.457 |
| O=C1C(=O)c2ccc(Br)cc2-c2cc(Br)ccc21 | > 60.1 | > 100 | 0.84 | 2.91 | 10.4 | > 100 | 20.3 | > 96.6 | 51.8 | > 100 | 0.607 | 1.71 | 0.852 | 2.57 | 2.34 | 8.61 | 1.41 | 3.92 | 7.29 | > 100 |

— PubChem BioAssay (NCI)
